According to patent EP4471049A1 (Zealand Pharma A/S, priority 2023, dated 2024):
Like-named read-outs stand apart in the source and are kept apart here. *1 amine or outer side, *2 acyl side, *3 side chain or, on linkers, in order; H or OH if unused. Where a SMILES comes first, the peptide text is derived from it. Bridges are numbered along the chain shown (N, C = ends). [ ]: non-standard residue; d: D form. 2Nal = N[C@@H](Cc1ccc2ccccc2c1)C(=O)O; AEF = NCCOc1ccc(C[C@H](N)C(=O)O)cc1; X1 = O=C(Cc1ccc(CN[*:1])cc1)[*:2]; 3Pal = N[C@@H](Cc1cccnc1)C(=O)O; αMeL = CC(C)C[C@](C)(N)C(=O)O; Dab = NCC[C@H](N)C(=O)O; Sar = CNCC(=O)O

Tests used:
human IL-23R = target: T1, human IL-23R (Homo sapiens, UniProt Q5VWK5); assay: biochemical
T1 sequence (Q5VWK5 22-629): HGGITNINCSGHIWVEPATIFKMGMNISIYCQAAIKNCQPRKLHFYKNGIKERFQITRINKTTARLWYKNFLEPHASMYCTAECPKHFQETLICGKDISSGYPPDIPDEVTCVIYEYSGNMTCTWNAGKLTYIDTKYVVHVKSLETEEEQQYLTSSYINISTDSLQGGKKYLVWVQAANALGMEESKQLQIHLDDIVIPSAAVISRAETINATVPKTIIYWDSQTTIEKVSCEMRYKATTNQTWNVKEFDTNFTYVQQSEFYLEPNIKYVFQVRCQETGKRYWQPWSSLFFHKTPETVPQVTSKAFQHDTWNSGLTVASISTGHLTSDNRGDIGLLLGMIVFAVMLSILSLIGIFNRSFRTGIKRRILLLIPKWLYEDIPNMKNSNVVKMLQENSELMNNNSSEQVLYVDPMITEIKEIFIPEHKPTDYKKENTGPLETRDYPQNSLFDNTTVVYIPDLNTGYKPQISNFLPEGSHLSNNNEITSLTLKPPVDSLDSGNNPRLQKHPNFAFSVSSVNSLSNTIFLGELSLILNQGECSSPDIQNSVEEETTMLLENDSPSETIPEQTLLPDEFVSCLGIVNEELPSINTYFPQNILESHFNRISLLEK
Method in brief: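 Membranes from HEK293 cells stably expressing Nluc-tagged human IL-23R were incubated 2 h at room temperature with test compound and a fluorophore-labelled tracer. After substrate addition, loss of BRET (TAMRA over luciferase emission) reported tracer displacement. A 4PL fit gave IC50 values.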

[1] = Peptide stability in simulated intestinal fluid (SIF); assay type: in vitro ADME; settings: for remaining at 4 h, 10 µM / remaining at 1 h, 10 µM: pig, simulated intestinal fluid (SIF) with porcine pancreatin
Method in brief: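 Peptides were incubated at 37 °C with gentle shaking in pH 6.8 potassium phosphate SIF containing porcine pancreatin (10 g/L). Supernatants were analysed by LC-HRMS. Percent remaining at each timepoint, including 4 h, was calculated relative to time zero from absolute peak areas.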

[2] = pH 6.8, Example 2 (Tables 2-1 to 2-4), intact peptide remaining after 4 h, read-out: SIF (% after 4 h)
[3] = 37 °C, pH 6.8, porcine pancreatin 10 g/L, 10 µM
[4] = 4 h, 37 °C, pH 6.8, porcine pancreatin 10 g/L, 10 µM

Row | SMILES | % displacement (hIL-23R binding) (human IL-23R) | IC50 (human IL-23R) | remaining at 4 h, 10 µM [1, 2] | remaining at 1 h, 10 µM [1, 3] | SIF (% remaining 4 h) [1, 4] | Emax (human IL-23R; read-out: % displacement (hIL-23R binding)) | SIF (% after 4 h) ([1]; Example 2 (Tables 2-1 to 2-4), intact peptide remaining after 4 h) | remaining at 4 h, 10 µM ([1]; 4 h, 37 °C, pH 6.8, porcine pancreatin 10 g/L, 10 µM, read-out: SIF (% remaining 4 h))
1 | CC(C)C[C@]1(C)NC(=O)[C@H](Cc2ccc3ccccc3c2)NC(=O)[C@H](Cc2ccc(OCCN)cc2)NC(=O)[C@@H]2CCNC(=O)CC[C@H](NC(=O)[C@H](CO)NC(=O)Cc3ccc(cc3)CNC(=O)CC[C@@H](C(=O)N[C@@H](CCN)C(=O)N[C@@](C)(Cc3cccnc3)C(N)=O)NC1=O)C(=O)N[C@@H](Cc1c[nH]c3ccccc13)C(=O)N[C@@H](CCC(N)=O)C(=O)N2 [Compound 3, [4-Aminomethyl-phenylacetyl](1c)*SE(2c)WQ[Dab](2c)[Y(2-aminoethoxy)][2-Nal][2-Me-Leu]E(1c)[Dab][2-Me-3-(3-Pyridyl)-Ala]-[NH2]] | 99% | 0.034 nM | 109% | 115% | – | – | – | –
2 | CC(C)C[C@]1(C)NC(=O)[C@H](Cc2ccc3ccccc3c2)NC(=O)[C@H](Cc2ccc(OCCN)cc2)NC(=O)[C@@H]2CCNC(=O)CC[C@H](NC(=O)[C@H](CO)NC(=O)Cc3ccc(cc3)CNC(=O)CC[C@@H](C(=O)N[C@@H](CCN)C(=O)NCCCCc3cccnc3)NC1=O)C(=O)N[C@@H](Cc1c[nH]c3ccccc13)C(=O)N[C@@H](CCC(N)=O)C(=O)N2 [Compound 6, [4-Aminomethyl-phenylacetyl](1c)*SE(2c)WQ[Dab](2c)[Y(2-aminoethoxy)][2-Nal][2-Me-Leu]E(1c)[Dab]-[NH-(4-(pyridin-3-yl)butanyl)]] | 103% | – | 73% | – | 73% | – | – | –
3 | CC(C)C[C@]1(C)NC(=O)[C@H](Cc2ccc3ccccc3c2)NC(=O)[C@H](Cc2ccc(OCCN)cc2)NC(=O)[C@@H]2CCNC(=O)CC[C@H](NC(=O)[C@H](CO)NC(=O)Cc3ccc(cc3)CNC(=O)CC[C@@H](C(=O)N[C@@H](CCN)C(=O)NCCc3cccnc3)NC1=O)C(=O)N[C@@H](Cc1c[nH]c3ccccc13)C(=O)N[C@@H](CCC(N)=O)C(=O)N2 [Compound 7, [4-Aminomethyl-phenylacetyl](1c)*SE(2c)WQ[Dab](2c)[Y(2-aminoethoxy)][2-Nal][2-Me-Leu]E(1c)[Dab]-[NH-(2-(pyridin-3-yl)ethyl)]] | – | 0.012 nM | – | – | 130% | 102% | 130% | –
4 | CC(C)C[C@]1(C)NC(=O)[C@H](Cc2ccc3ccccc3c2)NC(=O)[C@H](Cc2ccc(OCCN)cc2)NC(=O)[C@@H]2CCNC(=O)CC[C@H](NC(=O)[C@H](CO)NC(=O)Cc3ccc(cc3)CNC(=O)CC[C@@H](C(=O)N[C@@H](CCN)C(=O)N[C@@H](Cc3cccnc3)C(=O)N[C@H](Cc3c[nH]cn3)C(N)=O)NC1=O)C(=O)N[C@@H](Cc1c[nH]c3ccccc13)C(=O)N[C@@H](CCC(N)=O)C(=O)N2 [Compound 10, [4-Aminomethyl-phenylacetyl](1c)*SE(2c)WQ[Dab](2c)[Y(2-aminoethoxy)][2-Nal][2-Me-Leu]E(1c)[Dab][3-(3-Pyridyl)-Ala][{d}H]-[NH2]] ([X1]SEWQ[Dab][AEF][2Nal][αMeL]E[Dab][3Pal][dH]-NH2; lactam 3-6, N-10) | 91% | 0.0058 nM | 11% | 34% | 11% | – | – | –
5 | CC(C)C[C@]1(C)NC(=O)[C@H](Cc2ccc3ccccc3c2)NC(=O)[C@H](Cc2ccc(OCCN)cc2)NC(=O)[C@@H]2CCNC(=O)CC[C@H](NC(=O)[C@H](CO)NC(=O)Cc3ccc(cc3)CNC(=O)CC[C@@H](C(=O)N[C@@H](CCN)C(=O)N[C@@H](Cc3c[nH]cn3)C(=O)N[C@@H](Cc3cccnc3)C(N)=O)NC1=O)C(=O)N[C@@H](Cc1c[nH]c3ccccc13)C(=O)N[C@@H](CCC(N)=O)C(=O)N2 [Compound 12, [4-Aminomethyl-phenylacetyl](1c)*SE(2c)WQ[Dab](2c)[Y(2-aminoethoxy)][2-Nal][2-Me-Leu]E(1c)[Dab]H[3-(3-Pyridyl)-Ala]-[NH2]] ([X1]SEWQ[Dab][AEF][2Nal][αMeL]E[Dab]H[3Pal]-NH2; lactam 3-6, N-10) | 104% | 0.057 nM | – | 60% | – | – | – | 2%
6 | CC(C)C[C@]1(C)NC(=O)[C@H](Cc2ccc3ccccc3c2)NC(=O)[C@H](Cc2ccc(OCCN)cc2)NC(=O)[C@@H]2CCNC(=O)CC[C@H](NC(=O)[C@H](CO)NC(=O)Cc3ccc(cc3)CNC(=O)CC[C@@H](C(=O)N[C@@H](CCN)C(=O)N[C@H](Cc3c[nH]cn3)C(N)=O)NC1=O)C(=O)N[C@@H](Cc1c[nH]c3ccccc13)C(=O)N[C@@H](CCC(N)=O)C(=O)N2 [Compound 13, [4-Aminomethyl-phenylacetyl](1c)*SE(2c)WQ[Dab](2c)[Y(2-aminoethoxy)][2-Nal][2-Me-Leu]E(1c)[Dab][{d}H]-[NH2]] | 100% | 0.059 nM | 56% | – | 56% | – | – | –

Further lines, results first:

Row | % displacement (hIL-23R binding) (human IL-23R) | IC50 (human IL-23R) | remaining at 4 h, 10 µM [1, 2] | remaining at 1 h, 10 µM [1, 3] | SIF (% remaining 4 h) [1, 4] | Emax (human IL-23R; read-out: % displacement (hIL-23R binding)) | SIF (% after 4 h) ([1]; Example 2 (Tables 2-1 to 2-4), intact peptide remaining after 4 h) | remaining at 4 h, 10 µM ([1]; 4 h, 37 °C, pH 6.8, porcine pancreatin 10 g/L, 10 µM, read-out: SIF (% remaining 4 h)) | SMILES
7 | 111% | – | 89% | – | – | – | – | – | CC(C)C[C@]1(C)NC(=O)[C@H](Cc2ccc3ccccc3c2)NC(=O)[C@H](Cc2ccc(OCCN)cc2)NC(=O)[C@@H]2CCNC(=O)CC[C@H](NC(=O)[C@H](CO)NC(=O)Cc3ccc(cc3)CNC(=O)CC[C@@H](C(=O)N[C@@H](CCN)C(=O)N(C)[C@@H](Cc3cccnc3)C(N)=O)NC1=O)C(=O)N[C@@H](Cc1c[nH]c3ccccc13)C(=O)N[C@@H](CCC(N)=O)C(=O)N2 [Compound 4, [4-Aminomethyl-phenylacetyl](1c)*SE(2c)WQ[Dab](2c)[Y(2-aminoethoxy)][2-Nal][2-Me-Leu]E(1c)[Dab][N-Me-3-(3-Pyridyl)-Ala]-[NH2]]
8 | 99% | 0.093 nM | 41% | – | 41% | – | – | – | CC(C)C[C@]1(C)NC(=O)[C@H](Cc2ccc3ccccc3c2)NC(=O)[C@H](Cc2ccc(OCCN)cc2)NC(=O)[C@@H]2CCNC(=O)CC[C@H](NC(=O)[C@H](CO)NC(=O)Cc3ccc(cc3)CNC(=O)CC[C@@H](C(=O)N[C@@H](CCN)C(=O)N[C@H](Cc3cccnc3)C(N)=O)NC1=O)C(=O)N[C@@H](Cc1c[nH]c3ccccc13)C(=O)N[C@@H](CCC(N)=O)C(=O)N2 [Compound 5, [4-Aminomethyl-phenylacetyl](1c)*SE(2c)WQ[Dab](2c)[Y(2-aminoethoxy)][2-Nal][2-Me-Leu]E(1c)[Dab][{d}3-(3-Pyridyl)-Ala]-[NH2]]
9 | 103% | 0.0098 nM | 105% | – | – | – | – | – | CNC(=O)[C@H](Cc1cccnc1)NC(=O)[C@H](CCN)NC(=O)[C@@H]1CCC(=O)NCc2ccc(cc2)CC(=O)N[C@@H](CO)C(=O)N[C@H]2CCC(=O)NCC[C@H](NC(=O)[C@H](CCC(N)=O)NC(=O)[C@H](Cc3c[nH]c4ccccc34)NC2=O)C(=O)N[C@@H](Cc2ccc(OCCN)cc2)C(=O)N[C@@H](Cc2ccc3ccccc3c2)C(=O)N[C@@](C)(CC(C)C)C(=O)N1 [Compound 8, [4-Aminomethyl-phenylacetyl](1c)*SE(2c)WQ[Dab](2c)[Y(2-aminoethoxy)][2-Nal][2-Me-Leu]E(1c)[Dab][3-(3-Pyridyl)-Ala]-[NHMe]]
10 | 100% | 0.0053 nM | 105% | – | – | – | – | – | CC(C)C[C@]1(C)NC(=O)[C@H](Cc2ccc3ccccc3c2)NC(=O)[C@H](Cc2ccc(OCCN)cc2)NC(=O)[C@@H]2CCNC(=O)CC[C@H](NC(=O)[C@H](CO)NC(=O)Cc3ccc(cc3)CNC(=O)CC[C@@H](C(=O)N[C@@H](CCN)C(=O)N[C@@H](Cc3cccnc3)C(=O)N(C)CC(N)=O)NC1=O)C(=O)N[C@@H](Cc1c[nH]c3ccccc13)C(=O)N[C@@H](CCC(N)=O)C(=O)N2 [Compound 9, [4-Aminomethyl-phenylacetyl](1c)*SE(2c)WQ[Dab](2c)[Y(2-aminoethoxy)][2-Nal][2-Me-Leu]E(1c)[Dab][3-(3-Pyridyl)-Ala][Sar]-[NH2]] ([X1]SEWQ[Dab][AEF][2Nal][αMeL]E[Dab][3Pal][Sar]-NH2; lactam 3-6, N-10)
